# Laboratory results reported in patent US20240336602A1 (Katholieke Universiteit Leuven, priority 2020, published 2024).
# Target: T1, mouse TRPM3a2 (mTRPM3) ion channel (Mus musculus, UniProt J9SQF3)
# T1 construct: expressed in transfected cells; host or cells: flip-in HEK293
# Assay: TRPM3 ion channel driven Ca2+ uptake, Fluo-4 AM assay (PS-stimulated, overexpressing flip-in HEK293 cells)
# Type: cell-based
# Method in brief: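 Flip-in HEK293 cells overexpressing mTRPM3α2, loaded with Fluo-4 AM, were added to wells with compound plus 50 μM pregnenolone sulfate in Ca2+-containing Krebs buffer and read immediately (ex 485/em 535 nm). Percent inhibition was scaled between PS-plus-vehicle and positive-control-inhibitor signals.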
# [1] = PS (50 μM) stimulated, cpd 001-199
# [2] = PS (50 μM) stimulated Ca2+ influx, HEK293, cpds 300-399
# [3] = PS (50 μM) stimulated, cpds. 400-499
# [4] = PS (50 μM) stimulated, cpds. 500-599
# T1 sequence (J9SQF3 1-1709 isoform J9SQF3-12): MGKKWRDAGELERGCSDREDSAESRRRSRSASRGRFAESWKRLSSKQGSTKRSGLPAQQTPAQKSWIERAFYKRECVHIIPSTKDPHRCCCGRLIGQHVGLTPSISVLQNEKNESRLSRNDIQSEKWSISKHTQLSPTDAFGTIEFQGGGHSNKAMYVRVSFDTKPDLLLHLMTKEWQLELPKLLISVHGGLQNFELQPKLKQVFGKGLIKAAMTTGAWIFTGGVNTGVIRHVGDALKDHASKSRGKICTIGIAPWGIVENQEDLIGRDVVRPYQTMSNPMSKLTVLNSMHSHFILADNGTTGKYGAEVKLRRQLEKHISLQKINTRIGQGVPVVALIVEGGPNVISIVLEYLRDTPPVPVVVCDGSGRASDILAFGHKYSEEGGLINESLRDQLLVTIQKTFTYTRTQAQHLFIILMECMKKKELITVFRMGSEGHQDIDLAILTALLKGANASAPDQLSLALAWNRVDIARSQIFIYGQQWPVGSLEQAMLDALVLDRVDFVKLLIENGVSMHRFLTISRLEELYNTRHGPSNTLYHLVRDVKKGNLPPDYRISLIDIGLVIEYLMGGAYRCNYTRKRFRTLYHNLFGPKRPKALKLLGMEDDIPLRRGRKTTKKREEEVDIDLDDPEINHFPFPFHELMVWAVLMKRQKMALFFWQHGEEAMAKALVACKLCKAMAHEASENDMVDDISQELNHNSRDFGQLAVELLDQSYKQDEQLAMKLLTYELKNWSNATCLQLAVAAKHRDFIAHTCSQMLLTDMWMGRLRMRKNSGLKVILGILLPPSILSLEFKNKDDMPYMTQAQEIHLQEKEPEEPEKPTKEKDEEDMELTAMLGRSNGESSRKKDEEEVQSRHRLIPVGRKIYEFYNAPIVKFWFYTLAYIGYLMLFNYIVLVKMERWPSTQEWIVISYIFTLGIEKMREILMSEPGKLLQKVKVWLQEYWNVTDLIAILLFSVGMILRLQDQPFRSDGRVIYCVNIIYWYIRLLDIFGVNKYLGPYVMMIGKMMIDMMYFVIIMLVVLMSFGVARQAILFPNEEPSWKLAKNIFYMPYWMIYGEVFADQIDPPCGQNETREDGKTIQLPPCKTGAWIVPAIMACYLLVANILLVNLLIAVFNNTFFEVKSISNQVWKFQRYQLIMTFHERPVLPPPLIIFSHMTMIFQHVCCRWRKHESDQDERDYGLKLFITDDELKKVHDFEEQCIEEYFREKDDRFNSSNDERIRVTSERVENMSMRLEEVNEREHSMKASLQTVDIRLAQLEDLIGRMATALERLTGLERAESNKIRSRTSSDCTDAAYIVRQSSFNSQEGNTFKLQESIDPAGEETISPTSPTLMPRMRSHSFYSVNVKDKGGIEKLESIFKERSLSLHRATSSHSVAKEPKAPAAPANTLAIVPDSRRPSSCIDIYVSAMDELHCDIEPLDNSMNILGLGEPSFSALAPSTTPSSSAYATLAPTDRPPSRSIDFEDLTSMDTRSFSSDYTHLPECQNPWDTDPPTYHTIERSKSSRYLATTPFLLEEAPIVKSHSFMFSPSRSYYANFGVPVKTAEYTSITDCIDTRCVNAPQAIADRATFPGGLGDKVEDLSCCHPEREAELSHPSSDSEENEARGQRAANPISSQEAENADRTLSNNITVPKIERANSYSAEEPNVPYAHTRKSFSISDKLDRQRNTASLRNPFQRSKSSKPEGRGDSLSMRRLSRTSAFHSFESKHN
IC50 [1],IC50 [2],Structure (SMILES),further results
1 to 20 µM,,"Cc1oc2ccc(OCc3cnccc3Cl)cc2c1C(=O)NC1CCN(C(=O)OC(C)(C)C)CC1(F)F (stereo not shown) [cpd 093, tert-butyl 4-(5-((4-chloropyridin-3-yl)methoxy)-2-methylbenzofuran-3-carboxamido)-3,3-difluoro-piperidine-1-carboxylate]",
1 to 20 µM,,"Cc1oc2ccc(OCc3ccc4nccn4c3)cc2c1C(=O)NC1CCN(C(=O)OC(C)(C)C)CC1(F)F (stereo not shown) [cpd 094, tert-butyl 3,3-difluoro-4-(5-(imidazo[1,2-a]pyridin-6-ylmethoxy)-2-methylbenzofuran-3-carbox-amido)piperidine-1-carboxylate]",
1 to 20 µM,,"Cc1oc2ccc(OCc3cncc(C(F)(F)F)c3)cc2c1C(=O)NC1CCN(C(=O)OC(C)(C)C)CC1(F)F (stereo not shown) [cpd 095, tert-butyl 3,3-difluoro-4-(2-methyl-5-((5-(trifluoromethyl)pyridin-3-yl)methoxy)benzofuran-3-carboxamido)piperidine-1-carboxylate]",
1 to 20 µM,,"Cc1oc2ccc(OCc3ncccc3C(F)(F)F)cc2c1C(=O)NC1CCN(C(=O)OC(C)(C)C)CC1(F)F (stereo not shown) [cpd 096, tert-butyl 3,3-difluoro-4-(2-methyl-5-((3-(trifluoromethyl)pyridin-2-yl)methoxy)benzofuran-3-carboxamido)piperidine-1-carboxylate]",
1 to 20 µM,,"Cc1oc2ccc(OCc3ccccn3)cc2c1C(=O)NC1CCN(C(=O)OC(C)(C)C)CC1(F)F (stereo not shown) [cpd 097, tert-butyl 3,3-difluoro-4-(2-methyl-5-(pyridin-2-ylmethoxy)benzofuran-3-carboxamido)piperidine-1-carboxylate]",
1 to 20 µM,,"Cc1oc2ccc(OCc3cccnc3C(F)(F)F)cc2c1C(=O)NC1CCN(C(=O)OC(C)(C)C)CC1(F)F (stereo not shown) [cpd 098, tert-butyl 3,3-difluoro-4-(2-methyl-5-((2-(trifluoromethyl)pyridin-3-yl)methoxy)benzofuran-3-carboxamido)piperidine-1-carboxylate]",
1 to 20 µM,,"Cc1ccncc1COc1ccc2oc(C)c(C(=O)O)c2c1 [cpd 099, 2-methyl-5-((4-methylpyridin-3-yl)methoxy)benzofuran-3-carboxylic acid]",
1 to 20 µM,,"COc1ncccc1COc1ccc2oc(C)c(C(=O)O)c2c1 [cpd 100, 5-((2-methoxypyridin-3-yl)methoxy)-2-methylbenzofuran-3-carboxylic acid]",
1 to 20 µM,,"Cc1ncsc1COc1ccc2oc(C)c(C(=O)O)c2c1 [cpd 102, 2-methyl-5-((4-methylthiazol-5-yl)methoxy)benzofuran-3-carboxylic acid]",
1 to 20 µM,,"Cc1oc2ccc(OCc3cccnc3C(F)(F)F)cc2c1C(=O)n1ccc(N)n1 [cpd 178, (3-amino-1H-pyrazol-1-yl)(2-methyl-5-((2-(trifluoromethyl)pyridin-3-yl)methoxy)benzofuran-3-yl)methanone]",
1 to 20 µM,,"Cc1oc2ccc(OCc3cccnc3C(F)(F)F)cc2c1C(=O)n1cc(N)cn1 [cpd 181, (4-amino-1H-pyrazol-1-yl)(2-methyl-5-((2-(trifluoromethyl)pyridin-3-yl)methoxy)benzofuran-3-yl)methanone]",
1 to 20 µM,,"Cc1ncsc1COc1cc(Cl)c2oc(C)c(C(=O)NC3(CO)CCOCC3)c2c1 [cpd 187, 7-chloro-N-(4-(hydroxymethyl)tetrahydro-2H-pyran-4-yl)-2-methyl-5-((4-methylthiazol-5-yl)-methoxy)benzofuran-3-carboxamide]",
1 to 20 µM,,"Cc1oc2ccc(OCc3cccnc3C(F)(F)F)cc2c1C(=O)NCC1(N)COC1 [cpd 189, N-((3-aminooxetan-3-yl)methyl)-2-methyl-5-((2-(trifluoromethyl)pyridin-3-yl)methoxy)-benzofuran-3-carboxamide]",
1 to 20 µM,,"Cc1ncsc1COc1ccc2oc(C)c(C(=O)NC3CC4(CNC4)C3)c2c1 [cpd 190, 2-methyl-5-((4-methylthiazol-5-yl)methoxy)-N-(2-azaspiro[3.3]heptan-6-yl)benzofuran-3-carboxamide]",
1 to 20 µM,,"Cc1ncsc1COc1ccc2oc(C(F)F)c(C(=O)NC3(CO)CCOCC3)c2c1 [cpd 197, 2-(difluoromethyl)-N-(4-(hydroxymethyl)tetrahydro-2H-pyran-4-yl)-5-((4-methylthiazol-5-yl)-methoxy)benzofuran-3-carboxamide]",
,,"Cc1ncc(COc2ccc3oc(C)c(C(=O)N[C@@H](CO)C(=O)N4CCC(F)(F)C4)c3c2)s1 [cpd 277, (S)-N-(1-(3,3-difluoropyrrolidin-1-yl)-3-hydroxy-1-oxopropan-2-yl)-2-methyl-5-((2-methylthiazol-5-yl)methoxy)benzofuran-3-carboxamide]","IC50 (PS (50 μM) stimulated Ca2+ influx, HEK293, cpds 200-299): 1 to 20 µM"
,1 to 20 µM,"Cc1ncc(COc2ccc3oc(C)c(C(=O)N[C@@H](CO)C(=O)N4CCCC4)c3c2)s1 [cpd 307, (S)-N-(3-hydroxy-1-oxo-1-(pyrrolidin-1-yl)propan-2-yl)-2-methyl-5-((2-methylthiazol-5-yl)methoxy)benzofuran-3-carboxamide]",

IC50 [1],IC50 [2],Structure (SMILES),further results
,1 to 20 µM,"Cc1ncsc1COc1ccc2oc(C(F)F)c(C(=O)NC3(CO)CC3)c2c1 [cpd 308, 2-(difluoromethyl)-N-(1-(hydroxymethyl)cyclopropyl)-5-((4-methylthiazol-5-yl)methoxy)benzofuran-3-carboxamide]",
,1 to 20 µM,"Cc1ncsc1COc1ccc2oc(C(F)F)c(C(=O)NC3(CO)COC3)c2c1 [cpd 309, 2-(difluoromethyl)-N-(3-(hydroxymethyl)oxetan-3-yl)-5-((4-methylthiazol-5-yl)methoxy)benzofuran-3-carboxamide]",
,1 to 20 µM,"COc1ncccc1COc1ccc2oc(C(F)F)c(C(=O)NC3(CO)CCOCC3)c2c1 [cpd 312, 2-(difluoromethyl)-N-(4-(hydroxymethyl)tetrahydro-2H-pyran-4-yl)-5-((2-methoxypyridin-3-yl)methoxy)benzofuran-3-carboxamide]",
,1 to 20 µM,"Cc1ncsc1COc1ccc2oc(C)c(C(=O)NC3(CO)CC3)c2c1F [cpd 327, 4-fluoro-N-(1-(hydroxymethyl)cyclopropyl)-2-methyl-5-((4-methylthiazol-5-yl)methoxy)benzofuran-3-carboxamide]",
,1 to 20 µM,"Cc1oc2ccc(OCc3nccn3CC(F)F)cc2c1C(=O)NC1(CO)CCOCC1 [cpd 331, 5-((1-(2,2-difluoroethyl)-1H-imidazol-2-yl)methoxy)-N-(4-(hydroxymethyl)tetrahydro-2H-pyran-4-yl)-2-methylbenzofuran-3-carboxamide]",
,1 to 20 µM,"Cc1oc2ccc(OCc3ncccc3C(F)F)cc2c1C(=O)NC1(CO)CCOCC1 [cpd 351, 5-((3-(difluoromethyl)pyridin-2-yl)methoxy)-N-(4-(hydroxymethyl)tetmhydro-2H-pyran-4-yl)-2-methylbenzofuran-3-carboxamide]",
,1 to 20 µM,"Cc1ncsc1COc1cc(F)c2oc(C)c(C(=O)NC3(CO)CC3)c2c1 [cpd 366, 7-fluoro-N-(1-(hydroxymethyl)cyclopropyl)-2-methyl-5-((4-methylthiazol-5-yl)methoxy)benzofuran-3-carboxamide]",
,1 to 20 µM,"Cc1oc2c(F)cc(OCc3cccnc3O)cc2c1C(=O)NC1(CO)CCOCC1 [cpd 368, 7-fluoro-N-(4-(hydroxymethyl)tetrahydro-2H-pyran-4-yl)-5-((2-hydroxypyridin-3-yl)methoxy)-2-methylbenzofuran-3-carboxamide]",
,1 to 20 µM,"COc1ncccc1COc1cc(F)c2oc(C)c(C(=O)NC3(CO)CCOCC3)c2c1 [cpd 369, 7-fluoro-N-(4-(hydroxymethyl)tetrahydro-2H-pyran-4-yl)-5-((2-methoxypyridin-3-yl)methoxy)-2-methylbenzofuran-3-carboxamide]",
,≤ 1 µM,"Cc1oc2ccc(OCc3ccnn3CC(F)F)cc2c1C(=O)N[C@H](C(N)=O)[C@@H](C)O [cpd 381, N-((2S,3R)-1-amino-3-hydroxy-1-oxobutan-2-yl)-5-((1-(2,2-difluoroethyl)-1H-pyrazol-5-yl)methoxy)-2-methylbenzofuran-3-carboxamide]",
,,"Cc1oc2ccc(OCc3cccn(C)c3=O)cc2c1C(=O)NC1CCN(CCO)C1=O (stereo not shown) [cpd 405, N-(1-(2-hydroxyethyl)-2-oxopyrrolidin-3-yl)-2-methyl-5-((1-methyl-2-oxo-1,2-dihydropyridin-3-yl)methoxy)benzofuran-3-carboxamide]",IC50 [3]: ≥ 20 µM
,,"Cc1oc2ccc(OCc3cccnc3O)cc2c1C(=O)NC1(C(N)=O)CC1 [cpd 479, N-(1-carbamoylcyclopropyl)-5-((2-hydroxypyridin-3-yl)methoxy)-2-methylbenzofuran-3-carboxamide]",IC50 [3]: 1 to 20 µM
,,"Cc1ncsc1COc1ccc2oc(C)c(C(=O)NC(C#N)C(N)=O)c2c1 (stereo not shown) [cpd 502, N-(2-amino-1-cyano-2-oxoethyl)-2-methyl-5-((4-methylthiazol-5-yl)methoxy)benzofuran-3-carboxamide]",IC50 [4]: ≤ 1 µM
,,"Cc1ncsc1COc1ccc2oc(C)c(C(=O)NCC(N)=O)c2c1 [cpd 503, N-(2-amino-2-oxoethyl)-2-methyl-5-((4-methylthiazol-5-yl)methoxy)benzofuran-3-carboxamide]",IC50 [4]: ≤ 1 µM
,,"Cc1ncsc1COc1ccc2oc(C)c(C(=O)NC3(CN)COC3)c2c1 [cpd 507, N-(3-(aminomethyl)oxetan-3-yl)-2-methyl-5-((4-methylthiazol-5-yl)methoxy)benzofuran-3-carboxamide]",IC50 [4]: 1 to 20 µM
,,"Cc1oc2ccc(OCc3nccn3C)cc2c1C(=O)NC1(CO)COC1 [cpd 523, N-(3-(hydroxymethyl)oxetan-3-yl)-2-methyl-5-((1-methyl-1H-imidazol-2-yl)methoxy)benzofuran-3-carboxamide]",IC50 [4]: 1 to 20 µM
,,"Cc1oc2ccc(OCc3nccn3C)cc2c1C(=O)NC1(C(N)=O)COC1 [cpd 578, N-(3-carbamoyloxetan-3-yl)-2-methyl-5-((1-methyl-1H-imidazol-2-yl)methoxy)benzofuran-3-carboxamide]",IC50 [4]: 1 to 20 µM
